Assay results from article PMC2910156 (Journal of neurochemistry, 2010).

Biological target: α-synuclein (E46K α-syn) (Homo sapiens, UniProt P37840, E46K)
Test: Thioflavin T fibrillization assay with purified E46K α-syn
Assay type: biochemical

O=c1cc(-c2ccccc2)oc2cc(O)c(O)c(O)c12 [Baicalein]
IC50: ~10 µM
